Measured values taken from PubChem BioAssay (NCI).
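The compound was tested at five concentrations on cells cultured in 96-well plates, with a 48-hour exposure period. The concentration for full growth arrest is given as TGI.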

Key:
Assay in all cases: DTP human tumour cell line panel, 48 h
[1] = tested on: NCI-H460 lung
[2] = tested on: MDA-MB-435
[3] = tested on: A549 NSCLC
[4] = tested on: OVCAR-3 ovarian
[5] = tested on: HCT-116 colon
[6] = tested on: U251 CNS
[7] = tested on: SK-MEL-28 melanoma
[8] = tested on: MCF7 breast
[9] = tested on: SR leukemia
[10] = tested on: EKVX NSCLC
[11] = tested on: UACC-257 melanoma
[12] = tested on: NCI-H23 lung
[13] = tested on: OVCAR-5 ovarian
[14] = tested on: UO-31 renal
[15] = tested on: NCI-H522 lung
[16] = tested on: A498 renal
[17] = tested on: SF-295 CNS
[18] = tested on: HCC-2998 colon
[19] = tested on: HOP-62 NSCLC
[20] = tested on: HT29 colon
[21] = tested on: OVCAR-8 ovarian
[22] = tested on: TK-10 renal
[23] = tested on: CCRF-CEM leukemia
[24] = tested on: RXF 393 renal
[25] = tested on: HL-60(TB) leukemia
[26] = tested on: ACHN renal
[27] = tested on: MOLT-4 leukemia
[28] = tested on: M14 melanoma
[29] = tested on: OVCAR-4 ovarian
[30] = tested on: SF-268 CNS
[31] = tested on: SNB-75 CNS
[32] = tested on: 786-0 renal
[33] = tested on: HCT-15 colon
[34] = tested on: T-47D breast
[35] = tested on: K-562 leukemia
[36] = tested on: SK-MEL-5 melanoma
[37] = tested on: SK-MEL-2 melanoma
[38] = tested on: HOP-92 NSCLC
[39] = tested on: NCI/ADR-RES ovarian
[40] = tested on: SW-620 colon
[41] = tested on: SNB-19 CNS
[42] = tested on: LOX IMVI melanoma
[43] = tested on: IGROV1 ovarian
[44] = tested on: SF-539 CNS
[45] = tested on: RPMI-8226 leukemia
[46] = tested on: MALME-3M melanoma
[47] = tested on: MDA-N
[48] = tested on: CAKI-1 renal
[49] = tested on: SK-OV-3 ovarian
[50] = tested on: DU-145 prostate
[51] = tested on: MDA-MB-231 breast
[52] = tested on: PC-3 prostate
[53] = tested on: HS 578T breast
[54] = tested on: NCI-H226 lung
[55] = tested on: KM12 colon
[56] = tested on: COLO 205 colon
[57] = tested on: UACC-62 melanoma
[58] = tested on: SN12C renal
[59] = tested on: BT-549 breast

Measured: TGI

COC(=O)c1cc2c(c(C(=O)OC)c1)CCC2
> 100 µM: [1] | [2] | [3] | [4] | [5] | [6] | [7] | [8] | [10] | [11] | [12] | [13] | [14] | [15] | [16] | [17] | [18] | [19] | [20] | [21] | [22] | [23] | [24] | [25] | [26] | [27] | [28] | [29] | [30] | [31] | [32] | [33] | [34] | [35] | [36] | [37] | [38] | [39] | [40] | [41] | [42] | [43] | [44] | [45] | [46] | [47] | [48] | [49] | [50] | [51] | [52] | [53]
86.8 µM: [9]

CC(NC1=NCCO1)c1ccccc1Cl (configuration not stated)
73 µM: [38]
> 100 µM: [1] | [2] | [3] | [4] | [5] | [6] | [7] | [8] | [9] | [54] | [10] | [11] | [12] | [13] | [14] | [15] | [16] | [17] | [18] | [19] | [20] | [21] | [22] | [23] | [24] | [55] | [25] | [26] | [27] | [56] | [28] | [29] | [30] | [31] | [32] | [33] | [34] | [35] | [36] | [37] | [39] | [40] | [41] | [42] | [43] | [57] | [44] | [45] | [46] | [47] | [48] | [49] | [50] | [51] | [52] | [53] | [58]

COc1ccc2[nH]cc(CCNC(=O)[C@H](Cc3ccc(O)cc3)NC(=O)[C@@H](NCC(F)(F)F)C(C)C)c2c1
> 100 µM: [1] | [3] | [5] | [6] | [7] | [8] | [9] | [54] | [10] | [11] | [12] | [13] | [14] | [15] | [17] | [19] | [20] | [21] | [22] | [23] | [24] | [55] | [25] | [26] | [27] | [56] | [28] | [29] | [32] | [33] | [35] | [37] | [38] | [39] | [40] | [41] | [42] | [59] | [43] | [57] | [44] | [45] | [46] | [47] | [49] | [50] | [51] | [52] | [58]
83.3 µM: [2]
57.4 µM: [4]
91.1 µM: [53]

CC(C)(C)C1=C(Br)C(F)(C(C)(C)C)OP1(=O)c1ccccc1 (configuration not stated)
31.3 µM: [6]
33.2 µM: [44]
30.8 µM: [15] | [39]
37 µM: [17]
31.4 µM: [9]
33.1 µM: [22]
36.4 µM: [21] | [42]
29.6 µM: [32]
22.9 µM: [35] | [36]
33.7 µM: [55]
32 µM: [46] | [50] | [52]
28.5 µM: [28]
29.7 µM: [43]
36.5 µM: [37]
34.7 µM: [47]
30 µM: [8] | [19] | [26]
29.3 µM: [57]
36.6 µM: [13]
40 µM: [16]
59.4 µM: [14]
36.2 µM: [30]
32.3 µM: [40]
28.8 µM: [4]
36.3 µM: [3]
23 µM: [29]
25.8 µM: [48]
16.2 µM: [25]
53.8 µM: [53]
29.9 µM: [2]
42.1 µM: [34]
30.9 µM: [11] | [31]
37.9 µM: [12]
29.4 µM: [56]
35.6 µM: [1]
32.2 µM: [49]
24.5 µM: [24]
33.6 µM: [10]
28.4 µM: [18]
29.5 µM: [58]
31 µM: [54]
34.1 µM: [7]
35 µM: [20]
34.2 µM: [38]
31.8 µM: [5]
36.9 µM: [33]
30.6 µM: [41]
